Results from patent US20230373940A1, “CARBOXYLIC DIARYLTHIAZEPINEAMINES AND USES THEREOF” (Kures, Inc., priority 2020, published 2023).
Structures can show the parent of a compound that is named as a salt.

Legend:
[1] = molecular target: T1, human mu opioid receptor (MOR) (Homo sapiens, UniProt P35372); experiment: BRET assay measuring G protein activation, agonist activity at human MOR (transfected HEK-293T cells); format: cell-based; details: for MOR potency relative to analogs lacking substitution at position 2: dihalo-substituted core
T1 construct: expressed in transfected cells; host or cells: HEK-293T
Description: (§1) The diarylthiazepinamine carboxylic acids (9) were tested for agonist activity at the human mu opioid receptor (MOR) and delta opioid receptor (DOR) using bioluminescence resonance energy transfer (BRET) assays measuring G protein activation as previously described (Table 1) (Rives, M.-L. et al. 2012; Negri, A. et al. 2013).
(§2) Transfection. Human MOR cDNA was transfected alongside […] with RLuc8 inserted at position 91 (GαoB-RLuc8), Gβ1 (β1), and Gγ2 fused to the full-length mVenus at its N terminus (mVenus-γ2) into HEK-293T cells (5×10^6 cells/plate) in 10-cm dishes using PEI (Polysciences Inc.; Warrington, PA) in a 1:1 ratio diluted in Opti-MEM (Life Technologies Corp.; Grand Island, NY) to assay for G protein activation as described previously (Rives, M.-L. et al. 2012; Negri, A. et al. 2013). Cells were maintained in Dulbecco's Modified Eagle Medium (high glucose #11965; Life Technologies) supplemented with 10% FBS (Premium Select, Atlanta Biologicals; Atlanta, GA) and 100 U/mL penicillin and 100 μg/mL streptomycin (#15140, Life Technologies). After 24 hours the media was changed, and the experiment was performed 24 hours later (48 hours after transfection).
(§3) BRET. Transfected cells were dissociated and re-suspended in phosphate-buffered saline (PBS). Approximately 200,000 cells/well were added to a black-framed, white well 96-well plate (#60050; Perkin Elmer; Waltham, MA). The microplate was centrifuged and the cells were re-suspended in PBS. Then 5 μM of the luciferase substrate coelenterazine H was added to each well for 5 minutes. Following coelenterazine H addition, ligands were added and the BRET signal was measured at 5 minutes on a PHERAstar FS plate reader. Quantification of the BRET signal required calculating the ratio of the light emitted by the energy acceptor, mVenus (510-540 nm), over the light emitted by the energy donor, RLuc8 (485 nm). […] Dose response curves were fit using a three-parameter logistics equation in GraphPad Prism 6.
The additional diarylthiazepinamine carboxylic acids (9i, 9j, 9k, and 91) were tested for agonist activity at the human mu opioid receptor (MOR) using bioluminescence resonance energy transfer (BRET) assays measuring G protein activation (Table 2) as previously described (Rives, M.-L. et al. 2012; Negri, A. et al. 2013; Example 2 of the present application).

[2] = for Solubility, 100 mM HCl, pH 1 (mg/mL): pH 1, 25° C.
Description: Solubility Determination. Test compounds (4 mg) were added to 200 μL of one of the tested aqueous solutions (hereinafter—buffer): 100 mM aqueous HCl (pH 1) or 100 mM Na-phosphate buffer (pH 7). The obtained suspensions/solutions with the theoretical concentration of 20 mg/mL were further allowed to equilibrate at 25° C. on a thermostatic orbital shaker for 24 hours and then centrifuged at 6000 rpm for 4 minutes and filtered through HTS filter plates using a vacuum manifold. In parallel, compound dilutions in 50% acetonitrile/HCl and 30% acetonitrile/Na-phosphate buffer mixes were prepared to theoretical concentrations of 0 mg/mL (blank), 0.1 mg/mL, 0.2 mg/mL, and 0.4 mg/mL in duplicates to generate calibration curves falling within the optimum UV absorption range. The filtrates of test compounds were diluted 100-fold with acetonitrile-buffer mixtures before measuring. The filtered supernatant test samples were transferred to 96-well plates and measured for absorbance in the 200-550 nm range with 5 nm step increment. The concentrations of compounds in supernatants were calculated using the measured absorbance and the previously determined calibration curve. Proper absorbance wavelengths for calculations were selected for each compound manually based on absorbance maxima (absolute absorbance unit values for the minimum and maximum concentration points within 0-2.5 OD range).

[3] = Solubility Determination (Method B), distilled water, orbital shaker 2 h; format: physicochemical; details: neutral unbuffered water, vs iodotianeptine
Description: (§4) Solubility Determination (Method B). A quantity of the appropriate compound sufficient to saturate the resulting solution was added to distilled water (0.50 mL) and the mixture agitated on an orbital shaker for 2 h at room temperature (20° C.). The mixture was then centrifuged for 5 min. at 21,000×g and the supernatant was carefully removed by syringe and passed through a […] syringe filter. An aliquot (300 μL) of the filtered supernatant was concentrated in vacuo and the mass of the residual solids determined in order to calculate the solubility.

male C57BL/6 mice = experiment: Analgesic activity in hot plate assay; format: in vivo, mouse; details: for ED50: Mus musculus, sc, hot plate 55° C., male C57BL/6 mice; for Analgesic activity in the mouse hot plate assay: much higher potency than tianeptine
Description: Analgesic Activity in Hot Plate Assay. Male C57BL/6 mice were timed for latency to jump on a hot-plate apparatus set to 55° C., using a 30 s cutoff to prevent tissue damage. Following a baseline test, animals were injected subcutaneously (s.c.) with escalating doses of drug and tested at […] (time of maximal effect). Dose-response curves were fit via nonlinear regression using GraphPad Prism (La Jolla, CA).

MOR = MOR (Homo sapiens, UniProt P35372); details: Gassaway, M. M. et al. 2014; cited from earlier work
DOR = DOR (Homo sapiens, UniProt P41143); details: Gassaway, M. M. et al. 2014; cited from earlier work
[4] = molecular target: T2, human delta opioid receptor (DOR) (Homo sapiens, UniProt P41143); experiment: BRET assay measuring G protein activation, agonist activity at human DOR; format: cell-based
T2 construct: expressed in transfected cells
Description: as §1, §2, §3

[5] = Solubility Determination (Method A), distilled water, stirred 24 h; format: physicochemical
Description: as §4, with “(Method A).” for “(Method B).”, “mixture was stirred vigorously” for “mixture agitated on an orbital shaker”, “for 24” for “for 2”, “centrifuged for 3 min. at 21,000×g and the stir bar was carefully removed. The mixture was then centrifuged again” for “centrifuged”

[6] = average of 2 independent trials

T1 sequence (P35372 whole entry): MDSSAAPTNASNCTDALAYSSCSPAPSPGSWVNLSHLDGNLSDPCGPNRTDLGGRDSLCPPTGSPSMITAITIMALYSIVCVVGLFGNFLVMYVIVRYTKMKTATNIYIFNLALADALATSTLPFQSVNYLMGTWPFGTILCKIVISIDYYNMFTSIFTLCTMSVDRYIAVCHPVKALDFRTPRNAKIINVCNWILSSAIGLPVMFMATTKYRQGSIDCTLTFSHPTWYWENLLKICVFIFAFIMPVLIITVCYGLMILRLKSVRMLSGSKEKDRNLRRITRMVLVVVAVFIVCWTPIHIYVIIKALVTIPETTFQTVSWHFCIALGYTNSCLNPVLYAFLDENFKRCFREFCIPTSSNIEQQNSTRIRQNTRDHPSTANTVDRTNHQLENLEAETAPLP
T2 sequence (P41143 whole entry): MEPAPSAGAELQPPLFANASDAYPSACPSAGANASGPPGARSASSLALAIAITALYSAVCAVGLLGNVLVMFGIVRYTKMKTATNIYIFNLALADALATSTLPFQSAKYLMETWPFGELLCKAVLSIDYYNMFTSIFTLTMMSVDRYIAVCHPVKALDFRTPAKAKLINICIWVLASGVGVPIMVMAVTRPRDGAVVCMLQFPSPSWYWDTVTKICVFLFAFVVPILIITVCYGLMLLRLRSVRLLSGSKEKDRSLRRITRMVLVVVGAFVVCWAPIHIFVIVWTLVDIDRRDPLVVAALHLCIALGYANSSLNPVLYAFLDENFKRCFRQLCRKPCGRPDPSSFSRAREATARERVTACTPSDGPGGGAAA
MOR, sequence (P35372 whole entry): as the sequence (P35372 whole entry) above
DOR, sequence (P41143 whole entry): as the sequence (P41143 whole entry) above

CN1c2ccccc2C(NCCCCCCC(=O)O)c2cc(Cl)c(Cl)cc2S1(=O)=O.Cl (stereo not drawn) [Compound 9i, 7-((2,3-dichloro-6-methyl-5,5-dioxido-6,11-dihydrodibenzo[c,f][1,2]thiazopin-11-yl)amino) heptanoic acid hydrochloride salt]
MOR potency relative to analogs lacking substitution at position 2 [1]: equipotent or more potent

CN1c2ccccc2C(NCCCCCCC(=O)O)c2cc(F)c(Cl)cc2S1(=O)=O.Cl (stereo not drawn) [Compound 9j, 7-((3-chloro-2-fluoro-6-methyl-5,5-dioxido-6,11-dihydrodibenzo[c,f][1,2]thiazopin-11-yl)amino) heptanoic acid hydrochloride salt]
MOR potency relative to analogs lacking substitution at position 2 [1]: equipotent or more potent | Fold more soluble than monohalo counterpart at pH 1 ([2]; pH 1): 8 fold

CN1c2ccccc2C(NCCCCCCC(=O)O)c2ccc(I)cc2S1(=O)=O.Cl (stereo not drawn) [iodotianeptine, reference compound]
Solubility, 100 mM HCl, pH 1 (mg/mL) [2, 6]: <0.1 mg/mL

CN1c2ccccc2C(NCCCCCCC(=O)O)c2cc(F)c(I)cc2S1(=O)=O.Cl (stereo not drawn) [Compound 9k, 7-((2-fluoro-3-iodo-6-methyl-5,5-dioxido-6,11-dihydrodibenzo[c,f][1,2]thiazopin-11-yl)amino)heptanoic acid hydrochloride salt]
MOR potency relative to analogs lacking substitution at position 2 [1]: equipotent or more potent | Fold more soluble than analogous monohalo counterpart [3]: 2-3 fold | ED50 (male C57BL/6 mice): 1.7 mg/kg | Analgesic activity in the mouse hot plate assay (male C57BL/6 mice): potent analgesics

CN1c2ccccc2C(NCCCCCCC(=O)[O-])c2ccc(Cl)cc2S1(=O)=O.[Na+] (stereo not drawn) [Tianeptine (Na salt), Tianeptine, reference compound]
ED50 (male C57BL/6 mice): 15 mg/kg

CN1c2ccccc2C(NCCCCCCC(=O)O)c2ccc(Cl)cc2S1(=O)=O (stereo not drawn) [Tianeptine, tianeptine]
Agonist activity at the MOR (reported) (MOR): full agonist | Agonist activity at the DOR (reported) (DOR): low potency agonist activity

CCOC(=O)CCCCCCNC1c2ccccc2N(C)S(=O)(=O)c2cc(SC)ccc21 (stereo not drawn) [Ester Analog of 9c, Ethyl 7-((6-methyl-3-(methylthio)-5,5-dioxido-6,11-dihydrodibenzo[c,f][1,2]thiazepin-11-yl)amino)heptanoate]
Human DOR agonist type (partial / full agonist) [4]: partial agonist

CN1c2ccccc2C(NCCCCCCC(=O)O)c2ccc(Br)cc2S1(=O)=O.Cl (stereo not drawn) [bromotianeptine, reference compound]
Solubility, 100 mM HCl, pH 1 (mg/mL) [2, 6]: <0.1 mg/mL

CN1c2ccccc2C(NCCCCC(=O)O)c2cc(F)c(Br)cc2S1(=O)=O.Cl (stereo not drawn) [Compound 91, 5-((3-bromo-2-fluoro-6-methyl-5,5-dioxido-6,11-dihydrodibenzo[c,f][1,2]thiazepin-11-yl)amino) pentanoic acid hydrochloride salt]
MOR potency relative to analogs lacking substitution at position 2 [1]: equipotent or more potent

CN1c2ccccc2C(NCCCCCCC(=O)O)c2cc(F)c(Br)cc2S1(=O)=O.Cl (stereo not drawn) [Compound 9b, 7-((3-Bromo-2-fluoro-6-methyl-5,5-dioxido-6,11-dihydrodibenzo[c,f][1,2]thiazopin-11-yl)amino) heptanoic acid hydrochloride salt]
MOR potency relative to analogs lacking substitution at position 2 [1]: equipotent or more potent | Fold more soluble than analogous monohalo counterpart ([5]; neutral unbuffered water, vs bromotianeptine): 2-3 fold | Aqueous Solubility (mg/mL @ 20° C.) ([5]; neutral water, room temperature (20° C.), Method A, average of 2 independent trials): 9.8 mg/mL | Solubility, 100 mM HCl, pH 1 (mg/mL) [2, 6]: 1.1 mg/mL | Solubility, 100 mM Na phosphate buffer, pH 7 (mg/mL) ([2]; pH 7, 25° C., average of 2 independent trials): 0.84 mg/mL | ED50 (male C57BL/6 mice): 5.1 mg/kg | Analgesic activity in the mouse hot plate assay (male C57BL/6 mice): potent analgesics

CN1c2ccccc2C(NCCCCCCCCCC(=O)O)c2ccc(I)cc2S1(=O)=O (racemic) [Compound 9g, 10-((3-Iodo-6-methyl-5,5-dioxido-6,11-dihydrodibenzo[c,f][1,2]thiazopin-11-yl)amino)decanoic acid hydrochloride salt]
EC50 [1]: 26.6 ± 1.8 nM | EC50 [4]: 262 ± 25 nM

CN1c2ccccc2C(NCCCCCCCC(=O)O)c2ccc(I)cc2S1(=O)=O (racemic) [Compound 9e, 8-((3-Iodo-6-methyl-5,5-dioxido-6,11-dihydrodibenzo[c,f][1,2]thiazopin-11-yl)amino) octanoic acid hydrochloride salt]
EC50 [1]: 24.2 ± 11 nM | EC50 [4]: 724 ± 99 nM

CSc1ccc2c(c1)S(=O)(=O)N(C)c1ccccc1C2NCCCCCCC(=O)O (stereo not drawn) [Compound 9c, 7-((6-Methyl-3-(methylthio)-5,5-dioxido-6,11-dihydrodibenzo[c,f][1,2]thiazopin-11-yl)amino)heptanoic acid]
Human DOR agonist type (partial / full agonist) [4]: partial agonist | DOR Emax relative to the control agonist DPDPE ([4]; FIG. 1): lesser Emax than the control agonist DPDPE
